According to US12053451B2, “Arginase inhibitors and their therapeutic applications” (OncoArendi Therapeutics S.A., priority 2016, dated 2024):
Where a name gives a salt, the structure may show the parent alone.

Key:
[1] = target: T1, recombinant human arginase 2 (Homo sapiens, UniProt P78540); assay: Human arginase activity assay (urea measurement), arginase 2; type: biochemical; conditions: for selected examples class estimated from % of inhibition at 1 μM and 100 μM, * = most potent diastereoisomer or mixture of diastereoisomers, read-out: Activity Class (ARG II)
T1 construct: made in house; host or cells: CHO
T1 sequence (P78540 23-354): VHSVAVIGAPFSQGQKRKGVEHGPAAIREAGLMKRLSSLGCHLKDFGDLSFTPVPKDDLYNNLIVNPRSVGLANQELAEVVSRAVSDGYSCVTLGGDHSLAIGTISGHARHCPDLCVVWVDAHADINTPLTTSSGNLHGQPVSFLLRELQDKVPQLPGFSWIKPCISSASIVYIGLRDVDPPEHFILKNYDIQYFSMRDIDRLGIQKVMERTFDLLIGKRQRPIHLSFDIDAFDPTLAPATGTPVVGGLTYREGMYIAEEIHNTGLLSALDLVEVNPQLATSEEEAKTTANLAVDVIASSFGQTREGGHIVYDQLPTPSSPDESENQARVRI
Protocol: (§1) Human Arginase Activity Assay
An enzymatic assay with recombinant human arginases 1 (Biolegend, Cat. No. 552502) and 2 (homemade in eukaryotic expression system of CHO, purified by FPLC) was used in order to assess inhibitory activity of the compounds. The assay was run in the 96-well plate format, each reaction in the total volume of 100 uL. The assay is based on urea measurement, which is a product of L-arginine enzymatic degradation. (Baggio et al. J Pharmacol. Exp. Ther. 1999, 290, 1409-1416). The color product is developed by adding a mixture of reagent A (4 mM oPA in 50 mM boric acid in 1M sulfuric acid, 0.03% Brij-35) and reagent B (4 mM NED in 50 mM boric acid in 1M sulfuric acid, 0.03% Brij-35) in equal proportions. The absorbance for each well was measured at 530 nm.
(§2) Briefly, to each well of a 96-well microtiter plate 40 μL of enzyme in the reaction assay buffer (pH 7.4, 100 mM sodium phosphate buffer, 130 mM NaCl, 1 mg/mL albumin), 50 μL of the test compound solution and 10 μL of enzyme substrate solution (L-arginine hydrochloride, natural pH 5.6, final concentration 20 mM and a cofactor—manganese chloride, final concentration 150 μM) was added. For positive control, only the enzyme and substrate were used, the negative controls contained substrate solution with assay buffer. After incubating the microtiter plate at 37° C. for 60 min 150 μL of mixed reagents A and B was added to each well to stop the reaction. Absorbance was measured (λ=530 nm) 20 minutes later, after color development. The urea production in the absence of any compound was considered the maximum arginase activity. The absorbance in the absence of arginase (background) was subtracted from all the values. The normalized OD was used to generate a concentration-response curve by plotting the percent of inhibition against log[concentration] of the compound and using regression analysis (GraphPad Prism 7.0) to compute the IC50 values.
(§3) For selected examples the activity class for ARG2 was estimated based on % of inhibition for 1 μM and 100 μM concentration of tested compounds.

[2] = target: T2, intracellular arginase in macrophages isolated from murine bone marrow (BMDM) (Mus musculus, UniProt Q61176); assay: Cell-based assay: intracellular arginase in bone marrow derived macrophages (BMDM), urea level; design: species or system Balb/c mice; conditions: murine BMDM with M-CSF and IL-4, urea measured 24 hours after compound; * = most potent diastereoisomer or mixture of diastereoisomers; read-out: Activity Class (BMDM)
T2 construct: endogenous in cells; host or cells: primary bone marrow derived macrophages from Balb/c mice, M-CSF and IL-4 treated
T2 sequence (Q61176 1-323): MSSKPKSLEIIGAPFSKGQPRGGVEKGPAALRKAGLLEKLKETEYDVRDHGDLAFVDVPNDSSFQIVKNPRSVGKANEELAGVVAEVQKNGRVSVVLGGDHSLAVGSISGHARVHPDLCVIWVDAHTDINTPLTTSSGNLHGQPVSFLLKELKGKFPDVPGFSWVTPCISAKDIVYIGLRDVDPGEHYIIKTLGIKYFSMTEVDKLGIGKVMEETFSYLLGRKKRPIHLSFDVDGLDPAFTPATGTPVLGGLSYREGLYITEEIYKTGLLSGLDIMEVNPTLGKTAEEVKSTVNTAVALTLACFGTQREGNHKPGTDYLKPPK
Protocol: Efficacy of Selected Examples Towards Intracellular Arginase in Macrophages Isolated from Murine Bone Marrow—Bone Marrow Derived Macrophages (BMDM)
Materials & Methods: The assay was performed according to modified literature protocol modification (Pineda-Torra I et al., Methods Mol Biol. 2015; 1339:101-9. Mia S et al. Scand J Immunol. 2014 May; 79(5):305-14). The femurs and tibias were isolated from Balb/c mice. Bones were cleaned from all attached tissues by using sterile swab without affecting the bone structure. Bones were sterilized by immersion in 70% ethanol for 5 min and then rinsed in PBS. The sides of the bones were cut off and flush with cold sterile PBS by using 26-G needle S into a 50 mL sterile tube with a cell strainer (Falcon™, Cat. No. U00149), until bone cavity appeared white. Then the cells were centrifuged (5 min at 500×G, 4° C.), washed twice with PBS and counted. Cells were plated in Petri dish in density of 1×10^6/mL and cultured in DMEM (Gibco, Cat. No. 31331-029) with 10% FBS, 1% pen-strep and 50 ng/mL M-CSF (PeproTech, Cat. No. 315-02), (37° C., 5% CO2). After five days cells were subcultured into P96 plate (BD, Cat. No. 353072) in density of 64 000 cells/well in medium supplemented with 50 ng/mL M-CSF and 20 ng/mL IL-4 (Biomibo Cat. No. 214-1). One day later exemplary compounds (dissolved in PBS) were added in several different concentrations and 24 hours later the level of urea was measured in each well (Jung D et al., Clin Chem. 1975, 21(8):1136-40). The concentration of urea in the absence of any compound was considered as the maximum. The absorbance of cell culture media (background) was subtracted from all the values.
as §3

[3] = target: T3, recombinant human arginase 1 (Homo sapiens, UniProt P05089); assay: Human arginase activity assay (urea measurement), arginase 1; type: biochemical; conditions: recombinant human arginase 1, pH 7.4, 37° C., 60 min; * = value for the most potent diastereoisomer or the mixture of diastereoisomers; read-out: Activity Class (ARG I)
T3 construct: purchased Biolegend 552502
T3 sequence (P05089 1-322): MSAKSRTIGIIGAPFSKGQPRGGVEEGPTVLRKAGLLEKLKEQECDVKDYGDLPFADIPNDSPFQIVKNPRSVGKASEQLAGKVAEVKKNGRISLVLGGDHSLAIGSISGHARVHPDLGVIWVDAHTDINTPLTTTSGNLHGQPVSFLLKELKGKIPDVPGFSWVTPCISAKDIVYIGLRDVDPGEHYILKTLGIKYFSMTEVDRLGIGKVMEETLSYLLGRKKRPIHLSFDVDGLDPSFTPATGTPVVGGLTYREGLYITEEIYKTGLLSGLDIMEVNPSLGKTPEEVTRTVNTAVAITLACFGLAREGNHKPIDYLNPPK
Protocol: as §1
The assay was run in the 96-well plate format, each reaction in the total volume of 100 uL. The assay is based on urea measurement, which is a product of L-arginine enzymatic degradation. […] The color product is developed by adding a mixture of reagent A (4 mM oPA in 50 mM boric acid in 1M sulfuric acid, 0.03% Brij-35) and reagent B (4 mM NED in 50 mM boric acid in 1M sulfuric acid, 0.03% Brij-35) in equal proportions. The absorbance for each well was measured at 530 nm.
as §2, with “For” for “Briefly, to each well of a 96-well microtiter plate 40 μL of enzyme in the reaction assay buffer (pH 7.4, 100 mM sodium phosphate buffer, 130 mM NaCl, 1 mg/mL albumin), 50 μL of the test compound solution and 10 μL of enzyme substrate solution (L-arginine hydrochloride, natural pH 5.6, final concentration 20 mM and a cofactor—manganese chloride, final concentration 150 μM) was added. For”

IC50 [1]	IC50 [2]	IC50 [3]	SMILES
1 to 100 nM	100 to 1000 nM	1 to 100 nM	CCN(C)C[C@@H]1CC[C@@H](CCB(O)O)C[C@]1(N)C(=O)O [Example 69, (1R,2S,5R)-1-amino-5-(2-boronoethyl)-2-((ethyl(methyl)amino)methyl)cyclohexane-1-carboxylic acid]
100 to 1000 nM	1000 to 10000 nM	1 to 100 nM	N[C@@](CCCCB(O)O)(C(=O)O)C1CCN(Cc2ccc(Cl)c(Cl)c2)CC1 [Comparative example 3, reference compound]
1000 to 10000 nM	10000 to 100000 nM	1000 to 10000 nM	N[C@@]1(C(=O)O)CCC[C@@H](CCB(O)O)C1 (racemic) [Example 10, rac-(1S,3R)-1-Amino-3-(2-boronoethyl)cyclohexane-1-carboxylic acid hydrochloride]
1 to 100 nM	100 to 1000 nM	1 to 100 nM	CNC[C@@H]1CC[C@@H](CCB(O)O)C[C@]1(N)C(=O)O [Example 39, (1R,2S,5R)-1-amino-5-(2-boronoethyl)-2-((methylamino)methyl)cyclohexanecarboxylic acid dihydrochloride]
	100 to 1000 nM	1 to 100 nM	N[C@]1(C(=O)O)C[C@H](CCB(O)O)CC[C@H]1CN1C2CCC1CC2 (racemic) [Example 34, rac-(1R,2S,5R)-2-(7-azabicyclo[2.2.1]heptan-7-ylmethyl)-1-amino-5-(2-boronoethyl)cyclohexanecarboxylic acid dihydrochloride]

The next lines start with the compound.

SMILES	IC50 [1]	IC50 [2]	IC50 [3]
N[C@]1(C(=O)O)C[C@H](CCB(O)O)CC[C@H]1CN1CCc2ccccc2C1 (racemic) [Example 35, rac-(1R,2S,5R)-1-amino-5-(2-boronoethyl)-2-((3,4-dihydroisoquinolin-2(1H)-yl)methyl)cyclohexanecarboxylic acid dihydrochloride]	1000 to 10000 nM	10000 to 100000 nM	100 to 1000 nM
N[C@]1(C(=O)O)C[C@H](CCB(O)O)CC[C@H]1CN1CCCC1 (racemic) [Example 22, rac-(1R,2S,5R)-1-Amino-5-(2-boronoethyl)-2-(pyrrolidin-1-ylmethyl)-cyclohexane-1-carboxylic acid dihydrochloride]	100 to 1000 nM	100 to 1000 nM	1 to 100 nM
CN(Cc1ccc(Cl)c(Cl)c1)C[C@@H]1CC[C@@H](CCB(O)O)C[C@]1(N)C(=O)O (racemic) [Example 28, rac-(1R,2S,5R)-1-amino-5-(2-boronoethyl)-2-(((3,4-dichlorobenzyl)(methyl)amino)methyl)cyclohexanecarboxylic acid dihydrochloride]	100 to 1000 nM	10000 to 100000 nM	100 to 1000 nM
CCN(CC)C[C@@H]1CC[C@@H](CCB(O)O)C[C@]1(N)C(=O)O (racemic) [Example 30, rac-(1R,2S,5R)-1-amino-5-(2-boronoethyl)-2-((diethylamino)methyl)cyclohexanecarboxylic acid dihydrochloride]	100 to 1000 nM	100 to 1000 nM	100 to 1000 nM
NC1(C(=O)O)CC(CCB(O)O)CC=C1Cc1ccc(Cl)cc1 (stereo not shown) [Example 53, 1-amino-5-(2-boronoethyl)-2-(4-chlorobenzyl)cyclohex-2-enecarboxylic acid hydrochloride]	1000 to 10000 nM	1000 to 10000 nM	100 to 1000 nM
N[C@]1(C(=O)O)C[C@H](CCB(O)O)CC[C@H]1CN1CCCCC1 [Example 70, (1R,2S,5R)-1-amino-5-(2-boronoethyl)-2-(piperidin-1-ylmethyl)cyclohexane-1-carboxylic acid]	100 to 1000 nM	1 to 100 nM	1 to 100 nM
CNC1(C(=O)O)C[C@H](CCB(O)O)CCC1CN (single isomer, unassigned) [Example 68, dihydrochloride]	10000 to 100000 nM	10000 to 100000 nM	10000 to 100000 nM
N[C@@]1(C(=O)O)COC[C@@H](CCB(O)O)C1 (racemic) [Example 61, rac-(3R,5S)-3-amino-5-(2-boronoethyl)tetrahydro-2H-pyran-3-carboxylic acid hydrochloride]	1000 to 10000 nM	1000 to 10000 nM	100 to 1000 nM
CC1(C)CCN(C[C@@H]2CC[C@@H](CCB(O)O)C[C@]2(N)C(=O)O)CC1 (racemic) [Example 26, rac-(1R,2S,5R)-1-amino-5-(2-boronoethyl)-2-((4,4-dimethylpiperidin-1-yl)methyl)cyclohexanecarboxylic acid dihydrochloride]	100 to 1000 nM	1000 to 10000 nM	100 to 1000 nM
CC(C)N(C)C[C@@H]1CC[C@@H](CCB(O)O)C[C@]1(N)C(=O)O (racemic) [Example 32, rac-(1R,2S,5R)-1-amino-5-(2-boronoethyl)-2-((isopropyl(methyl)amino)methyl)cyclohexanecarboxylic acid]		100 to 1000 nM	100 to 1000 nM
